# Laboratory results taken from patent publication US20240308992A1 (Biopolar Youtang(Guangdong) Pharmaceutical Co., Ltd., priority 2021, published 2024).
# Target: T1, Drak2 (Homo sapiens, UniProt O94768)
# T1 sequence (O94768 1-372): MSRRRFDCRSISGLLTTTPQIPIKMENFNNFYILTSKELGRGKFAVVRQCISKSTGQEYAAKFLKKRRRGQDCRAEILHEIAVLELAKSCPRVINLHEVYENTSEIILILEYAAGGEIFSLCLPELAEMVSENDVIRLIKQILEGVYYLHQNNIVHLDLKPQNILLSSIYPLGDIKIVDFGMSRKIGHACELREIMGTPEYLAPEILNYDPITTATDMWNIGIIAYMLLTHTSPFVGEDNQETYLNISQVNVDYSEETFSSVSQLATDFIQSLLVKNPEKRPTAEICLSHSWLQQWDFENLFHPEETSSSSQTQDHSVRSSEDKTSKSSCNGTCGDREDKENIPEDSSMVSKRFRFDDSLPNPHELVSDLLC
# Experiment: Drak2 activity test, ADP-Glo kinase assay (Promega)
# Assay type: biochemical
# Settings: inhibition of Drak2 kinase activity, 2 h room temperature, activity range classes, read-out: IC50_Drak2
row,SMILES,IC50 [nM]
1,COc1cc(-c2cncc(-c3cc(NC(=O)CC4CCC4)cs3)n2)ccc1OC(O)CN1CCOCC1=O (stereo not shown) [Example 171],11 to 100
2,"COc1cc(-c2cncc(-c3cc(NC(=O)CC4CCC4)cs3)n2)ccc1OCCc1ccccn1 [Example 172, 2-cyclobutyl-N-{5-[6-(3-methoxy-4-{[2-(pyridin-2-yl)ethyl]oxy}phenyl)pyrazin-2-yl]thiophen-3-yl} acetamide]",101 to 1000
3,"COc1cc(-c2cncc(-c3cc(NC(=O)CC4CCC4)cs3)n2)ccc1OCCc1cnccn1 [Example 174, 2-cyclobutyl-N-{5-[6-(3-methoxy-4-{[2-(pyrazin-2-yl)ethyl]oxy}phenyl)pyrazin-2-yl]thiophen-3-yl} acetamide]",11 to 100
4,"CCCCC(=O)Nc1csc(-c2cncc(-c3ccc(OCCN4CCOCC4)c(OC)c3)n2)c1 [Example 179, N-{5-[6-(3-methoxy-4-{[2-(morpholin-4-yl)ethyl]oxy}phenyl)pyrazin-2-yl]thiophen-3-yl} pentanamide]",11 to 100
5,"CCCCC(=O)Nc1csc(-c2cncc(-c3ccc(OCCN4CCS(=O)(=O)CC4)c(OC)c3)n2)c1 [Example 180, N-{5-[6-(4-{[2-(1,1-dioxo-1 λ^6-1,4-thiomorpholin-4-yl)ethyl]oxy}-3-methoxyphenyl)pyrazin-2-yl]thiophen-3-yl} pentanamide]",11 to 100
6,"CCCCC(=O)Nc1csc(-c2cncc(-c3ccc(O)c(OC)c3)n2)c1 [Example 181, N-{5-[6-(4-hydroxy-3-methoxyphenyl)pyrazin-2-yl]thiophen-3-yl}pentanamide]",11 to 100
7,"CCCCNC(=O)c1csc(-c2cncc(-c3ccc(OC)c(OC)c3)n2)c1 [Example 182, N-butyl-5-[6-(3,4-dimethoxyphenyl)pyrazin-2-yl] thiophen-3-formamide]",101 to 1000
8,COc1cc(-c2cncc(-c3cc(NC(=O)CC4CCC4)cs3)n2)ccc1O [Example 183],11 to 100
9,"COc1cc(-c2cncc(-c3cc(NC(=O)CC4CC(F)(F)C4)cs3)n2)ccc1OCCN1CCOCC1 [Example 185, 2-(3,3-difluorocyclobutyl)-N-(5-(6-(3-methoxy-4-(2-morpholinylethoxy)phenyl)pyrazin-2-yl)thiophen-3-yl) acetamide]",11 to 100
10,COc1cc(-c2cncc(-c3cc(NC(=O)CC4CCC4)cs3)n2)ccc1O [Example 186],< 10
11,"CCCCCCc1csc(-c2cncc(-c3ccc(OC)c(OC)c3)n2)c1 [Example 188, 2-(3,4-Dimethoxyphenyl)-6-(4-hexylthiophen-2-yl) pyrazine]",1000 to 10000
12,CCCCC(=O)Nc1csc(-c2cncc(-c3ccc(OCCN4CCSCC4)c(OC)c3)n2)c1 [Example 193],11 to 100
13,"CCCCC(=O)Nc1csc(-c2cncc(-c3ccc(OCCN4CC[S+]([O-])CC4)c(OC)c3)n2)c1 [Example 194, N-{5-[6-(3-methoxy-4-{[2-(1-oxo-1λ4-thiomorpholin-4-yl)ethyl]oxy}phenyl)pyrazin-2-yl]thiophen-3-yl} pentanamide]",11 to 100
14,"CCCCC(=O)Nc1csc(-c2cncc(-c3cccc(OC)c3)n2)c1 [Example 195, N-{5-[6-(3-methoxyphenyl)pyrazin-2-yl]thiophen-3-yl} pentanamide]",11 to 100
15,"CCCCC(=O)Nc1csc(-c2cncc(-c3ccc(N)c(OC)c3)n2)c1 [Example 196, N-{5-[6-(4-amino-3-methoxyphenyl)pyrazin-2-yl]thiophen-3-yl}pentanamide]",< 10
16,"CCCCC(=O)Nc1csc(-c2cncc(-c3cccc(O)c3)n2)c1 [Example 197, N-(5-(6-(3-hydroxyphenyl)pyrazin-2-yl)thiophen-3-yl) pentanamide]",11 to 100
17,"CCCCC(=O)Nc1csc(-c2cncc(-c3cccc(C#N)c3)n2)c1 [Example 198, N-{5-[6-(3-cyanophenyl)pyrazin-2-yl]thiophen-3-yl} pentanamide]",101 to 1000
18,"CCCCC(=O)Nc1csc(-c2cncc(-c3ccc(C(=O)N(C)C4CC5(C4)CN(C)C5)c(OC)c3)n2)c1 [Example 199, 2-Methoxy-N-methyl-N-(2-methyl-2-azaspiro[3.3]heptane-6-yl)-4-(6-(4-pentamidothiophen-2-yl)pyrazin-2-yl) benzamide]",11 to 100
19,"COc1cc(-c2cncc(-c3cc(OCC[C@H](C)CN)cs3)n2)ccc1C(=O)N(C)C1CCN(C)CC1 [Example 200, 4-[6-(4-{[(3S)-4-amino-3-methylbutyl]oxy}thiophen-2-yl)pyrazin-2-yl]-2-methoxy-N-methyl-N-(1-methylhexahydropyridin-4-yl) benzamide]",11 to 100
20,"COc1cc(-c2cncc(-c3cc(NC(=O)C(C)(C)C4CCC4)cs3)n2)ccc1C(=O)N(C)C1CC2(C1)CN(C)C2 [Example 201, 4-(6-{4-[(2-cyclobutyl-2-methylpropionyl)amino]thiophen-2-yl}pyrazin-2-yl)-2-methoxy-N-methyl-N-(2-methyl-2-azaspiro [3.3]hept-6-yl) benzamide]",1000 to 10000
21,"COc1cc(-c2cncc(-c3cc(NC(=O)CC4CC(F)(F)C4)cs3)n2)ccc1C(=O)N(C)C1CC2(C1)CN(C)C2 (stereo not shown) [Example 202, 4-[6-(4-{[2-(3,3-difluorocyclobutyl)acetyl]amino}thiophen-2-yl)pyrazin-2-yl]-2-methoxy-N-methyl-N-(2-methyl-2-azaspiro [3.3]hept-6-yl) benzamide]",11 to 100

# Second part, the compound after the results:
row,IC50 [nM],SMILES
1,11 to 100,"COc1cc(-c2cncc(-c3cc(NC(=O)CC4CCC4)cs3)n2)ccc1OCCN1CCOCC1 [Example 169, 2-cyclobutyl-N-(5-(6-(3-methoxy-4-(2-morpholinylethoxy)phenyl)pyrazin-2-yl)thiophen-3-yl) acetamide]"
2,11 to 100,"COc1cc(-c2cncc(-c3cc(NC(=O)CC4CCC4)cs3)n2)ccc1OCCN1CCCC1=O [Example 170, 2-Cyclobutyl-N-{5-[6-(3-methoxy-4-{[2-(2-oxotetrahydro-1H-pyrrol-1-yl)ethyl]oxy}phenyl)pyrazin-2-yl]thiophen-3-yl} acetamide]"
3,11 to 100,"COc1cc(-c2cncc(-c3cc(NC(=O)CC4CCC4)cs3)n2)ccc1OCCN1CCN(C)CC1 [Example 173, 2-cyclobutyl-N-{5-[6-(3-methoxy-4-{[2-(4-methylpiperazin-1-yl)ethyl]oxy}phenyl)pyrazin-2-yl]thiophen-3-yl}acetamide]"
4,11 to 100,"COc1cc(-c2cncc(-c3cc(NC(=O)CC4CCC4)cs3)n2)ccc1OCCN1CCn2ncnc2C1 [Example 175, 2-cyclobutyl-N-{5-[6-(3-methoxy-4-{[2-(5,6,7,8-tetrahydro [1,2,4]triazolo [1,5-a]pyrazin-7-yl)ethyl]oxy}phenyl)pyrazin-2-yl]thiophen-3-yl} acetamide]"
5,< 10,"COc1cc(-c2cncc(-c3cc(NC(=O)CC4CCC4)cs3)n2)ccc1OCC(=O)N1CCN(C)CC1 [Example 176, 2-cyclobutyl-N-{5-[6-(3-methoxy-4-{[2-(4-methylpiperazin-1-yl)-2-oxoethyl]oxy}phenyl)pyrazin-2-yl]thiophen-3-yl} acetamide]"
6,11 to 100,"COc1cc(-c2cncc(-c3cc(NC(=O)CC4CCC4)cs3)n2)ccc1OCCN1CCN(C2CCN(C)CC2)CC1 [Example 177, 2-cyclobutyl-N-(5-{6-[3-methoxy-4-({2-[4-(1-methylhexahydropyridin-4-yl)piperazin-1-yl]ethyl}oxy)phenyl]pyrazin-2-yl}thiophen-3-yl) acetamide]"
7,11 to 100,"COc1cc(-c2cncc(-c3cc(NC(=O)CC4CCC4)cs3)n2)ccc1OCCN1CC2(CN(C)C2)C1 [Example 178, 2-cyclobutyl-N-{5-[6-(3-methoxy-4-{[2-(6-methyl-2,6-diazaspiro [3.3]hept-2-yl)ethyl]oxy}phenyl)pyrazin-2-yl]thiophen-3-yl} acetamide]"
8,11 to 100,"COc1cc(-c2cncc(-c3cc(NC(=O)CC4CCC4)cs3)n2)ccc1OCC1CCN(C)CC1 [Example 184, 2-Cyclobutyl-N-(5-(6-(3-methoxy-4-((1-methylpiperidin-4-yl)methoxy)phenyl)pyrazin-2-yl)thiophen-3-yl) acetamide]"
9,11 to 100,"COc1cc(-c2cncc(-c3cc(NC(=O)CC4CCC4)cs3)n2)ccc1OCCc1cnn(C)c1 [Example 187, 2-Cyclobutyl-N-(5-(6-(3-methoxy-4-(2-(1-methyl-1H-pyrazol-4-yl)ethoxy)phenyl)pyrazin-2-yl)thiophen-3-yl) acetamide]"
10,< 10,"COc1cc(-c2cncc(-c3cc(NC(=O)CC4CCC4)cs3)n2)ccc1OCCN1CCCC1 [Example 189, 2-Cyclobutyl-N-(5-(6-(3-methoxy-4-(2-(pyrrolidin-1-yl)ethoxy)phenyl)pyrazin-2-yl)thiophen-3-yl) acetamide]"
11,11 to 100,COc1cc(-c2cncc(-c3cc(NC(=O)CC4CCC4)cs3)n2)ccc1OCCN1CCSCC1 [Example 190]
12,< 10,"COc1cc(-c2cncc(-c3cc(NC(=O)CC4CCC4)cs3)n2)ccc1OCC(=O)N1CCOCC1 [Example 191, 2-Cyclobutyl-N-{5-[6-(3-methoxy-4-{[2-(morpholin-4-yl)-2-oxoethyl]oxy}phenyl)pyrazin-2-yl]thiophen-3-yl} acetamide]"
13,11 to 100,"COc1cc(-c2cncc(-c3cc(NC(=O)CC4CCC4)cs3)n2)ccc1OCC(=O)N1CCN(C2CCN(C)CC2)CC1 [Example 192, 2-Cyclobutyl-N-(5-{6-[3-methoxy-4-({2-[4-(1-methylhexahydropyridin-4-yl)piperazin-1-yl]-2-oxoethyl}oxy)phenyl]pyrazin-2-yl}thiophen-3-yl) acetamide]"
